Article PMC6934184, “Selective DNA-PKcs inhibition extends the therapeutic index of localized radiotherapy and chemotherapy” (The Journal of Clinical Investigation, 2019)

Target: T1, MKNK2 (MNK2) (Homo sapiens, UniProt Q9HBH9)
T1 construct: purchased Thermo Fisher Scientific (Life Technologies) SelectScreen
Experiment: SelectScreen LanthaScreen
Format: binding
Details: read-out: % displacement
Method in brief: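 SelectScreen broad panel; activity (Z'LYTE, Adapta) plus binding formats. ATP: Km app for CSF1R Z'LYTE; 10 for CAMK1 Adapta. Readout = % per kinase.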

T1 sequence (Q9HBH9 whole entry): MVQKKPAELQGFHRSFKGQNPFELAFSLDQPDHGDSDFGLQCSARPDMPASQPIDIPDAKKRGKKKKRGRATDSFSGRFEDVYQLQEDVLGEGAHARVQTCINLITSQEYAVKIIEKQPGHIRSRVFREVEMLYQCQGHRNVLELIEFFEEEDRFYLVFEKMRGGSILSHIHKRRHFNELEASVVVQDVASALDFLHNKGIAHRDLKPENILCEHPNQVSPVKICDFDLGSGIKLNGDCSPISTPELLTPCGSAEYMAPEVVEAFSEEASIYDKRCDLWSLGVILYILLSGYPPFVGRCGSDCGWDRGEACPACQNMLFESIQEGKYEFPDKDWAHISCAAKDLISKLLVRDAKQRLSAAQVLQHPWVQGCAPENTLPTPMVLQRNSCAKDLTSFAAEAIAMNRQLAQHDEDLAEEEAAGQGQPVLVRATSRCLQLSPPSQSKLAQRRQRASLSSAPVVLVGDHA

CN(C(=O)CN1CCOCC1)c1ccc2sc3c(-c4cccc5c(=O)cc(N6CC7CCC(C6)O7)oc45)cccc3c2c1 [NU5455]
inhibition at 1 µM: 0.2%
